Source: ChEMBL document CHEMBL1201862, “PubChem BioAssay data set” (2004)
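Exposure lasted 48 hours, with cells grown in 96-well plates and compounds tested at five concentrations. GI50 is the concentration that inhibits growth by half.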 Activity calls are given as the source filed them. Cut-off read from the data, not from the text of the source: active = GI50 up to about 1.1 µM and inactive = higher.

Tests used:
Experiment in all cases: NCI tumour cell line growth inhibition, 48 h
SR = test system: SR
OVCAR-4 = test system: OVCAR-4
786-0 = test system: 786-0
HOP-62 = test system: HOP-62
SK-MEL-28 = test system: SK-MEL-28
HCT-15 = test system: HCT-15
T47D = test system: T47D
SN12C = test system: SN12C
MDA-MB-435 = test system: MDA-MB-435
SF-295 = test system: SF-295
Malme-3M = test system: Malme-3M
KM12 = test system: KM12
SNB-19 = test system: SNB-19
OVCAR-3 = test system: OVCAR-3
A549 = test system: A549
ACHN = test system: ACHN
IGROV-1 = test system: IGROV-1
MDA-N = test system: MDA-N
COLO 205 = test system: COLO 205
PC-3 = test system: PC-3
MDA-MB-231 = test system: MDA-MB-231
UACC-62 = test system: UACC-62
NCI-H23 = test system: NCI-H23
DU-145 = test system: DU-145
HCC 2998 = test system: HCC 2998
BT-549 = test system: BT-549
CAKI-1 = test system: CAKI-1
CCRF-CEM = test system: CCRF-CEM
HL-60 = test system: HL-60
NCI-H226 = test system: NCI-H226
SNB-75 = test system: SNB-75
U-251 = test system: U-251
A498 = test system: A498
MOLT-4 = test system: MOLT-4
NCI-H460 = test system: NCI-H460
SF-539 = test system: SF-539
RPMI-8226 = test system: RPMI-8226
SW-620 = test system: SW-620
Hs-578T = test system: Hs-578T
OVCAR-5 = test system: OVCAR-5
M14 = test system: M14
UACC-257 = test system: UACC-257
OVCAR-8 = test system: OVCAR-8
HOP-92 = test system: HOP-92
RXF 393 = test system: RXF 393
HT-29 = test system: HT-29
SK-MEL-2 = test system: SK-MEL-2
HCT-116 = test system: HCT-116
SK-OV-3 = test system: SK-OV-3
UO-31 = test system: UO-31
EKVX = test system: EKVX
MCF7 = test system: MCF7
TK-10 = test system: TK-10
K562 = test system: K562
NCI/ADR-RES = test system: NCI/ADR-RES
NCI-H522 = test system: NCI-H522
SK-MEL-5 = test system: SK-MEL-5
SF-268 = test system: SF-268
LOX IMVI = test system: LOX IMVI

CC(C)c1ccc(O)c(=O)c(O)c1.CC(C)c1ccc(O)c(=O)cc1.CC(C)c1cccc(=O)c(O)c1.CC(C)c1ccccc(=O)c1O
GI50 (SR): 262 nM (active) | GI50 (OVCAR-4): 1110 nM (active) | GI50 (786-0): 719 nM (active) | GI50 (HOP-62): 1240 nM (inactive) | GI50 (SK-MEL-28): 2050 nM (inactive) | GI50 (HCT-15): 198 nM | GI50 (T47D): 1880 nM (inactive) | GI50 (SN12C): 998 nM (active) | GI50 (MDA-MB-435): 2100 nM (inactive) | GI50 (SF-295): 1230 nM (inactive) | GI50 (Malme-3M): 1430 nM (inactive) | GI50 (KM12): 2870 nM (inactive) | GI50 (SNB-19): 3400 nM (inactive) | GI50 (OVCAR-3): 279 nM (active) | GI50 (A549): 1070 nM (active) | GI50 (ACHN): 470 nM (active) | GI50 (IGROV-1): 1360 nM (inactive) | GI50 (MDA-N): 3320 nM (inactive) | GI50 (COLO 205): 2770 nM (inactive) | GI50 (PC-3): 416 nM (active) | GI50 (MDA-MB-231): 1790 nM (inactive) | GI50 (UACC-62): 787 nM (active) | GI50 (NCI-H23): 851 nM (active) | GI50 (DU-145): 1420 nM (inactive) | GI50 (HCC 2998): 304 nM (active) | GI50 (BT-549): 4800 nM (inactive) | GI50 (CAKI-1): 1360 nM (inactive) | GI50 (CCRF-CEM): 210 nM (active) | GI50 (HL-60): 281 nM (active) | GI50 (NCI-H226): 1760 nM (inactive) | GI50 (SNB-75): 2020 nM (inactive) | GI50 (U-251): 491 nM (active) | GI50 (A498): 2060 nM (inactive) | GI50 (MOLT-4): 343 nM (active) | GI50 (NCI-H460): 191 nM (active) | GI50 (SF-539): 598 nM (active) | GI50 (RPMI-8226): 964 nM (active) | GI50 (SW-620): 697 nM (active) | GI50 (Hs-578T): 4460 nM (inactive) | GI50 (OVCAR-5): 3110 nM (inactive) | GI50 (M14): 1800 nM (inactive) | GI50 (UACC-257): 322 nM (active) | GI50 (OVCAR-8): 604 nM (active) | GI50 (HOP-92): 5940 nM (inactive) | GI50 (RXF 393): 432 nM (active) | GI50 (HT-29): 509 nM (active) | GI50 (SK-MEL-2): 204 nM (active) | GI50 (HCT-116): 373 nM (active) | GI50 (SK-OV-3): 4370 nM (inactive) | GI50 (UO-31): 841 nM (active) | GI50 (EKVX): 6150 nM (inactive) | GI50 (MCF7): 935 nM (active) | GI50 (TK-10): 459 nM (active) | GI50 (K562): 571 nM (active) | GI50 (NCI/ADR-RES): 420 nM (active) | GI50 (NCI-H522): 456 nM (active) | GI50 (SK-MEL-5): 1220 nM (inactive) | GI50 (SF-268): 632 nM (active) | GI50 (LOX IMVI): 760 nM (active)

Cc1ccc(S(=O)(=O)C2=Cc3ccc(C(F)(F)F)cc3C2(O)c2cccc(C(F)(F)F)c2)cc1 (stereo not drawn)
GI50 (SR): 2430 nM (inactive) | GI50 (OVCAR-4): 1850 nM (inactive) | GI50 (786-0): 1930 nM (inactive) | GI50 (HOP-62): 7350 nM (inactive) | GI50 (SK-MEL-28): 1900 nM (inactive) | GI50 (HCT-15): 1950 nM | GI50 (T47D): 3100 nM (inactive) | GI50 (SN12C): 1880 nM (inactive) | GI50 (MDA-MB-435): 2050 nM (inactive) | GI50 (SF-295): 2450 nM (inactive) | GI50 (Malme-3M): 2020 nM (inactive) | GI50 (KM12): 1880 nM (inactive) | GI50 (SNB-19): 5830 nM (inactive) | GI50 (OVCAR-3): 1640 nM (inactive) | GI50 (A549): 2990 nM (inactive) | GI50 (ACHN): 2460 nM (inactive) | GI50 (IGROV-1): 2640 nM (inactive) | GI50 (MDA-N): 2380 nM (inactive) | GI50 (COLO 205): 1790 nM (inactive) | GI50 (PC-3): 2790 nM (inactive) | GI50 (MDA-MB-231): 2080 nM (inactive) | GI50 (UACC-62): 2390 nM (inactive) | GI50 (NCI-H23): 2010 nM (inactive) | GI50 (DU-145): 3250 nM (inactive) | GI50 (HCC 2998): 2430 nM (inactive) | GI50 (BT-549): 2060 nM (inactive) | GI50 (CAKI-1): 4050 nM (inactive) | GI50 (CCRF-CEM): 2560 nM (inactive) | GI50 (HL-60): 1650 nM (inactive) | GI50 (NCI-H226): 2150 nM (inactive) | GI50 (SNB-75): 2930 nM (inactive) | GI50 (U-251): 1870 nM (inactive) | GI50 (A498): 2000 nM (inactive) | GI50 (MOLT-4): 2500 nM (inactive) | GI50 (NCI-H460): 2330 nM (inactive) | GI50 (SF-539): 1950 nM (inactive) | GI50 (RPMI-8226): 2650 nM (inactive) | GI50 (SW-620): 1850 nM (inactive) | GI50 (Hs-578T): 3130 nM (inactive) | GI50 (OVCAR-5): 2080 nM (inactive) | GI50 (M14): 2400 nM (inactive) | GI50 (UACC-257): 1850 nM (inactive) | GI50 (OVCAR-8): 1410 nM (inactive) | GI50 (HOP-92): 1880 nM (inactive) | GI50 (RXF 393): 2230 nM (inactive) | GI50 (HT-29): 2190 nM (inactive) | GI50 (SK-MEL-2): 1820 nM (inactive) | GI50 (HCT-116): 1580 nM (inactive) | GI50 (SK-OV-3): 10200 nM (inactive) | GI50 (UO-31): 2250 nM (inactive) | GI50 (EKVX): 2870 nM (inactive) | GI50 (MCF7): 2300 nM (inactive) | GI50 (TK-10): 2470 nM (inactive) | GI50 (K562): 1990 nM (inactive) | GI50 (NCI/ADR-RES): 2710 nM (inactive) | GI50 (NCI-H522): 1660 nM (inactive) | GI50 (SK-MEL-5): 1880 nM (inactive) | GI50 (SF-268): 2390 nM (inactive) | GI50 (LOX IMVI): 1910 nM (inactive)
